Measurements from the CheMixHub viscosity set.

Experiment: xn = mol fraction of the nth substance listed

CC(=O)[O-].C[N+]1(CC2CO2)CCCC1=O (stereo unspecified) + CO
viscosity [mPa·s], 101 kPa
Conditions | 293.15 K | 298.15 K | 303.15 K | 308.15 K | 313.15 K
x1 = 0.036 | 0.71 | 0.66 | 0.62 | 0.57 | 0.52
x1 = 0.0744 | 0.92 | 0.85 | 0.78 | 0.72 | 0.73
x1 = 0.1088 | 1.12 | 1.03 | 0.94 | 0.87 | 0.8
x1 = 0.2024 | 1.69 | 1.52 | 1.38 | 1.26 | 1.15
x1 = 0.3033 | 2.35 | 2.09 | 1.87 | 1.69 | 1.53
x1 = 0.4042 | 3.02 | 2.66 | 2.36 | 2.1 | 1.89
x1 = 0.504 | 3.68 | 3.22 | 2.83 | 2.51 | 2.24
x1 = 0.6015 | 4.28 | 3.71 | 3.25 | 2.86 | 2.54
x1 = 0.7036 | 4.91 | 4.23 | 3.68 | 3.23 | 2.85
x1 = 0.8051 | 5.51 | 4.72 | 4.09 | 3.57 | 3.14
x1 = 0.9086 | 6.14 | 5.21 | 4.49 | 3.9 | 3.42

CCCCO + CO
101.33 kPa
Conditions | viscosity [mPa·s]
298.15 K, x2 = 0.1362 | 2.2
298.15 K, x2 = 0.2224 | 1.966
298.15 K, x2 = 0.302 | 1.768
298.15 K, x2 = 0.409 | 1.528
298.15 K, x2 = 0.5154 | 1.312
298.15 K, x2 = 0.6105 | 1.139
298.15 K, x2 = 0.693 | 0.999
298.15 K, x2 = 0.8012 | 0.833
298.15 K, x2 = 0.9004 | 0.69
303.15 K, x2 = 0.2846 | 1.602
303.15 K, x2 = 0.3614 | 1.45
303.15 K, x2 = 0.4291 | 1.311
303.15 K, x2 = 0.492 | 1.191
303.15 K, x2 = 0.6007 | 1.038
303.15 K, x2 = 0.6929 | 0.8879
303.15 K, x2 = 0.7719 | 0.7812
303.15 K, x2 = 0.8404 | 0.6887
303.15 K, x2 = 0.9003 | 0.6154

CCCCCCCC[N+](C)(CCCCCCCC)CCCCCCCC.[Cl-] + COC(=O)OC
Conditions | viscosity [mPa·s]
298.15 K, 101 kPa, x1 = 0.65 | 534.7

CCCCOCCOCCOCCCC + COC(=O)OC
viscosity [mPa·s], 101.3 kPa
Conditions | 298.15 K | 308.15 K | 318.15 K
x1 = 0.0176 | 0.616 | 0.546 | 0.488
x1 = 0.0289 | 0.635 | 0.562 | 0.498
x1 = 0.0543 | 0.678 | 0.599 | 0.523
x1 = 0.0894 | 0.743 | 0.65 | 0.56
x1 = 0.1574 | 0.862 | 0.747 | 0.634
x1 = 0.2414 | 1.012 | 0.867 | 0.726
x1 = 0.3274 | 1.169 | 0.991 | 0.82
x1 = 0.3389 | 1.189 | 1.005 | 0.83
x1 = 0.44 | 1.367 | 1.131 | 0.947
x1 = 0.5417 | 1.518 | 1.266 | 1.043
x1 = 0.636 | 1.653 | 1.377 | 1.125
x1 = 0.7193 | 1.745 | 1.451 | 1.182
x1 = 0.8605 | 1.934 | 1.606 | 1.289
x1 = 0.9421 | 2.047 | 1.677 | 1.351
